From US20100086931A1, “METHOD FOR ASSAYING ACTION OF ANTITUMOR AGENT USING DECREASE IN GENE EXPRESSION LEVEL AS INDEX” (Eisai R&D Management Co., Ltd., priority 2007, published 2010)

Test system: human colon carcinoma cell strain WiDr
Test: Microarray analysis (Human Genome U133 plus 2.0 array) of mRNA expression in WiDr cells treated with compound A
Format: cell-based
Conditions: 2.8 nM, 6 h, ratio to control
Protocol: Microarray analysis (Human Genome U133 plus 2.0 array: Affymetrix) was carried out using RNA purified from human colon carcinoma cell strain WiDr treated with 2.8 nM and 14 nM of (8E,12E,14E)-7-((4-Cycloheptylpiperazin-1-yl)carbonyl)oxy-3,6,16,21-tetrahydroxy-6,10,12,16,20-pentamethyl-18,19-epoxytricosa-8,12,14-trien-11-olide (hereinafter also referred to as “compound A”) for six hours.
WiDr cells were first suspended in RPMI1640 medium (containing 10% FBS, penicillin, and streptomycin) and seeded in a 10 cm dish (2×10^6 cells/dish). After an overnight culture in an incubator with 5% carbon dioxide gas at 37° C., the medium was changed with medium containing 2.8 nM and 14 nM of compound A or containing vehicle alone. After cultured additional six hours, TRI reagent (SIGMA) was added to cells, and the cells were harvested. RNA was purified in accordance with the protocol of TRI reagent, followed by further purification with RNeasy (QIAGEN). Absorbance at 260 nm was measured to quantify an amount of RNA.
Subsequently, single stranded cDNA synthesis, double stranded cDNA synthesis, biotin-labeled cRNA synthesis, and cRNA fragmentation in order were carried out from 5-10 μg (WiDr 10 μg, PBMC 5 μg) of total RNA from the control cells and the treated cells, by using One-Cycle Target Labeling and Control Reagents (Affymetrix). cRNA probe was used for hybridization with Human Genome U133 Plus 2.0 Array (Affymetrix). The array was then washed and stained, and luminescence intensity was measured by a scanner.
The RMA method was applied to 33 of .cel files obtained in the microarray experiment and log signal intensity at a gene level normalized with log signal intensity at a probe level was obtained. By subtracting the mean between control 1 and control 3 from the mean between log signal intensity 1 and log signal intensity 3 for each case, the log signal intensity was converted into a log signal ratio to the control. A t-test was conducted between each log signal intensity and control, and candidate genes were narrowed down in the basis of a p-value, a log signal ratio, and a signal value. Specifically, genes showing that the P value was 5% or less; the expression level in the untreated (control) is 100 or more by signal value; and the expression level when treated with both 2.8 nM and 14 nM of compound A is, compared to the control, 25% or less, were picked out. The software used is R2.2.1 (http://www.r-project.org/), affy package 1.8.1 (http://www.bioconductor.org).
Genes showing that, by the treatment with compound A, the P value was 5% or less; the expression level in the untreated (control) is 100 or more by signal value; and the expression level when treated with both 2.8 nM and 14 nM of compound A is, compared to the control, 25% or less, and results thereof were shown in Table 1. Probe ID used in Table 1 represents Human Genome U133 Plus 2.0 Array Probeset ID. In Table 1, for each gene evaluated, gene name (Gene Name), abbreviated name (Gene Symbol), accession number (Accession), alias name (Synonym), Probe set number in Human Genome U133 Plus 2.0 Array (Human Genome U133 Plus 2.0 Array Probeset ID), the expression level upon the six-hour treatment with 2.8 nM of E7107 (2.8 nM (6 h)), and the expression level upon the six-hour treatment with 14 nM of E7107 (14 nM (6 h)) were respectively shown.

## CCC(O)C(C)C1OC1CC(C)(O)/C=C/C=C(\C)C1OC(=O)CC(O)CCC(C)(O)C(OC(=O)N2CCN(C3CCCCCC3)CC2)/C=C/C1C (stereo not drawn) [E7107, (8E,12E,14E)-7-((4-Cycloheptylpiperazin-1-yl)carbonyl)oxy-3,6,16,21-tetrahydroxy-6,10,12,16,20-pentamethyl-18,19-epoxytricosa-8,12,14-trien-11-olide]
  ADPRHL2 mRNA expression level (223097_at): 0.23
  ANGEL2 mRNA expression level (221825_at): 0.22
  ARMC8 mRNA expression level (203486_s_at): 0.20
  ATP2A2 mRNA expression level (212361_s_at): 0.24
  ATP2B1 mRNA expression level (212930_at): 0.20
  ATP6V0A2 mRNA expression level (205704_s_at): 0.17
  BPTF mRNA expression level (232909_s_at): 0.20
  C1orf63 mRNA expression level (209006_s_at): 0.15
  C1orf79 mRNA expression level (223774_at): 0.16
  C1orf82 mRNA expression level (222893_s_at): 0.20
  C5orf28 mRNA expression level (219029_at): 0.20
  C6orf136 mRNA expression level (227455_at): 0.23
  C7orf23 mRNA expression level (204215_at): 0.12
  C7orf36 mRNA expression level (223433_at): 0.16
  C7orf49 mRNA expression level (220949_s_at): 0.20
  C12orf32 mRNA expression level (225837_at): 0.19
  C15orf40 mRNA expression level (1552310_at): 0.17
  C17orf80 mRNA expression level (223351_at): 0.22
  C20orf112 mRNA expression level (225224_at): 0.24
  CARD10 mRNA expression level (210026_s_at): 0.23
  CASC5 mRNA expression level (228323_at): 0.24
  CCDC14 mRNA expression level (225017_at): 0.21
  CCNE2 mRNA expression level (205034_at): 0.22
  CDC6 mRNA expression level (203967_at): 0.13
  CDC7 mRNA expression level (204510_at): 0.18
  CDNA FLJ34214 fis, clone FCBBF3021807 mRNA expression level (227087_at): 0.24
  CLDND1 mRNA expression level (208925_at): 0.16
  CLIP1 mRNA expression level (201975_at): 0.24
  DAPK1 mRNA expression level (203139_at): 0.09
  DNAJC16 mRNA expression level (212908_at): 0.24
  E2F7 mRNA expression level (228033_at): 0.22
  EHBP1 mRNA expression level (212653_s_at): 0.16
  ELL3 mRNA expression level (219518_s_at): 0.24
  ERCC3 mRNA expression level (202176_at): 0.25
  EVI1 mRNA expression level (226420_at): 0.17
  FAM86C mRNA expression level (65585_at): 0.19
  FANCL mRNA expression level (218397_at): 0.15
  FBXL5 mRNA expression level (209004_s_at): 0.19
  FCHO2 mRNA expression level (228220_at): 0.24
  FGF19 mRNA expression level (223761_at): 0.10
  FKSG44 mRNA expression level (227964_at): 0.11
  FLJ20628 mRNA expression level (221229_s_at): 0.16
  FRY mRNA expression level (204072_s_at): 0.23
  Full-length cDNA clone CS0DL007YI24 of B cells (Ramos cell line) mRNA expression level (226648_at): 0.22
  GRHL1 mRNA expression level (222830_at): 0.24
  HDAC4 mRNA expression level (204225_at): 0.21
  INTS7 mRNA expression level (222250_s_at): 0.24
  IREB2 mRNA expression level (225892_at): 0.12
  IXL mRNA expression level (225708_at): 0.20
  JAGN1 mRNA expression level (223104_at): 0.15
  JUB mRNA expression level (225806_at): 0.25
  KCNE3 mRNA expression level (227647_at): 0.20
  KIAA0323 mRNA expression level (212355_at): 0.23
  KIAA0776 mRNA expression level (212633_at): 0.18
  KIAA0859 mRNA expression level (212405_s_at): 0.17
  KIF2C mRNA expression level (211519_s_at): 0.20
  KIF21A mRNA expression level (226003_at): 0.18
  KIN mRNA expression level (205664_at): 0.22
  KLHL12 mRNA expression level (225068_at): 0.20
  LIPG mRNA expression level (219181_at): 0.21
  LOC51315 mRNA expression level (218303_x_at): 0.11
  LOC124512 mRNA expression level (225808_at): 0.15
  MASTL mRNA expression level (228468_at): 0.23
  MCM10 mRNA expression level (220651_s_at): 0.11
  METTL3 mRNA expression level (209265_s_at): 0.24
  METTL4 mRNA expression level (219698_s_at): 0.22
  MKRN1 mRNA expression level (201285_at): 0.20
  MLL2 mRNA expression level (227527_at): 0.21
  MND1 mRNA expression level (223700_at): 0.17
  MYOHD1 mRNA expression level (225947_at): 0.20
  NCOA5 mRNA expression level (225145_at): 0.20
  NIN mRNA expression level (225921_at): 0.22
  NOC3L mRNA expression level (218889_at): 0.23
  NPC1 mRNA expression level (202679_at): 0.24
  NR2C1 mRNA expression level (204791_at): 0.15
  NUPL1 mRNA expression level (223984_s_at): 0.12
  NUPL2 mRNA expression level (204003_s_at): 0.21
  ORC5L mRNA expression level (204957_at): 0.23
  PAXIP1 mRNA expression level (212825_at): 0.23
  PCGF1 mRNA expression level (210023_s_at): 0.21
  PHACTR4 mRNA expression level (226823_at): 0.25
  PHF20L1 mRNA expression level (226942_at): 0.24
  PIK3C3 mRNA expression level (204297_at): 0.23
  PLEKHA5 mRNA expression level (220952_s_at): 0.16
  PMS1 mRNA expression level (213677_s_at): 0.22
  POLD3 mRNA expression level (212836_at): 0.16
  POLR3E mRNA expression level (222490_at): 0.18
  PPM1B mRNA expression level (209296_at): 0.24
  PPWD1 mRNA expression level (213483_at): 0.21
  RAD54B mRNA expression level (219494_at): 0.18
  RBBP6 mRNA expression level (212783_at): 0.17
  RBM17 mRNA expression level (224780_at): 0.21
  RBMS1 mRNA expression level (209868_s_at): 0.17
  REPS1 mRNA expression level (224366_s_at): 0.22
  RFC4 mRNA expression level (204023_at): 0.13
  RIF1 mRNA expression level (226821_at): 0.13
  RPS6KC1 mRNA expression level (218909_at): 0.23
  SFXN1 mRNA expression level (230069_at): 0.17
  SHPRH mRNA expression level (226366_at): 0.19
  SLC17A5 mRNA expression level (223441_at): 0.24
  SLC25A19 mRNA expression level (223222_at): 0.25
  SLC37A1 mRNA expression level (218928_s_at): 0.22
  SMEK2 mRNA expression level (226230_at): 0.19
  SMUG1 mRNA expression level (218685_s_at): 0.24
  STAMBPL1 mRNA expression level (227606_s_at): 0.19
  STXBP3 mRNA expression level (203310_at): 0.19
  SYTL2 mRNA expression level (232914_s_at): 0.18
  TAF4 mRNA expression level (213090_s_at): 0.21
  TMEM177 mRNA expression level (218897_at): 0.24
  TNS3 mRNA expression level (217853_at): 0.20
  TRIM31 mRNA expression level (210159_s_at): 0.25
  TRIP4 mRNA expression level (203732_at): 0.21
  TSEN2 mRNA expression level (219581_at): 0.13
  TTC4 mRNA expression level (46167_at): 0.22
  TUBGCP3 mRNA expression level (203690_at): 0.16
  Transcribed locus mRNA expression level (230098_at): 0.17
  Transcribed locus mRNA expression level (230177_at): 0.18
  Transcribed locus mRNA expression level (235609_at): 0.21
  Transcribed locus, moderately similar to XP_518244.1 mRNA expression level (235046_at): 0.11
  Transcribed locus, strongly similar to NP_002194.1 integrin alpha 2 precursor mRNA expression level (227314_at): 0.24
  Transcribed locus, strongly similar to NP_689873.1 mRNA expression level (228638_at): 0.16
  UNC50 mRNA expression level (203583_at): 0.10
  WBP4 mRNA expression level (203598_s_at): 0.17
  WDR26 mRNA expression level (218107_at): 0.24
  WDR67 mRNA expression level (214061_at): 0.09
  ZC3HAV1L mRNA expression level (228280_at): 0.23
  ZCCHC6 mRNA expression level (220933_s_at): 0.18
  ZKSCAN1 mRNA expression level (214670_at): 0.21
  ZMIZ1 mRNA expression level (212124_at): 0.16
  ZNF518 mRNA expression level (204291_at): 0.18
  mRNA expression level, probeset 228106_at (gene name not given): 0.21
  mRNA expression level, probeset 235436_at (gene name not given): 0.21
